According to US12723063B2, “GIPR-agonist compounds” (Eli Lilly and Company, priority 2019, dated 2026):
*1 amine or outer side, *2 acyl side, *3 side chain or, on linkers, in order; H or OH if unused. Where a SMILES comes first, the peptide text is derived from it. Side-chain parts run from the residue outwards. [ ]: non-standard residue; d: D form. The star is where a group is joined. C20 diacid = O=C(O)CCCCCCCCCCCCCCCCCCC(=O)*; αMePhe(2-F) = C[C@](N)(Cc1ccccc1F)C(=O)O; γGlu = O=C(O)[C@H](CCC(=O)[*:2])N[*:1]; αMeF = C[C@](N)(Cc1ccccc1)C(=O)O; 4Pal = N[C@@H](Cc1ccncc1)C(=O)O; αMeL = CC(C)C[C@](C)(N)C(=O)O; AEEA = NCCOCCOCC(=O)O; Aib = CC(C)(N)C(=O)O

Key:
human GcgR = molecular target: T1, human GcgR (Homo sapiens, UniProt P47871); assay: [125I]-Glucagon binding, SPA with WGA beads, 0.1% bacitracin; details: geometric mean, read-out: hGcgR Ki
T1 construct: expressed in transfected cells; crude membranes
Outline: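 SPA competition binding with WGA beads on crude membranes from HEK293 cells stably expressing hGcgR. Buffer: 25 mM HEPES pH 7.4, 2.5 mM CaCl2, 1 mM MgCl2, 0.1% bacitracin, 0.003% Tween-20; 10-point 3-fold dilutions, NSB with 1 μM Gcg.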

human GLP-1R = molecular target: T2, human GLP-1R (Homo sapiens, UniProt P43220); assay: [125I]-GLP-1 binding, SPA with WGA beads, 0.1% bacitracin; details: geometric mean, read-out: hGLP1R Ki
T2 construct: expressed in transfected cells; crude membranes
Outline: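 Binding buffer was 25 mM HEPES pH 7.4 with 2.5 mM CaCl2, 1 mM MgCl2, 0.1% (w/v) bacitracin, 0.003% Tween-20 and EDTA-free protease inhibitors. Four-parameter regression gave IC50, converted to Ki (geometric mean, SEM, n independent days).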

T1 sequence (P47871 26-477): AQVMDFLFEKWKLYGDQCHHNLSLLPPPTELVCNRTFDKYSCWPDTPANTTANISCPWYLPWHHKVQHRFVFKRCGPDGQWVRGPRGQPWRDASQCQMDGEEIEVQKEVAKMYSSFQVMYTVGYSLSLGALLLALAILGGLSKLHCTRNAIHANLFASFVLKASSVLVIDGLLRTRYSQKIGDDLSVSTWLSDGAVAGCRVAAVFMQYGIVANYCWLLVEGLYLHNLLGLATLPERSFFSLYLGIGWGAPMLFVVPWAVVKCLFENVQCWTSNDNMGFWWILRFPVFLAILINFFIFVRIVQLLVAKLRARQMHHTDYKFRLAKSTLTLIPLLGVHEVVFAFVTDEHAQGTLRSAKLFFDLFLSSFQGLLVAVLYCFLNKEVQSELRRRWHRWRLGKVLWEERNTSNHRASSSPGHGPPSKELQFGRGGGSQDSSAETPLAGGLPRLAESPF
T2 sequence (P43220 24-463): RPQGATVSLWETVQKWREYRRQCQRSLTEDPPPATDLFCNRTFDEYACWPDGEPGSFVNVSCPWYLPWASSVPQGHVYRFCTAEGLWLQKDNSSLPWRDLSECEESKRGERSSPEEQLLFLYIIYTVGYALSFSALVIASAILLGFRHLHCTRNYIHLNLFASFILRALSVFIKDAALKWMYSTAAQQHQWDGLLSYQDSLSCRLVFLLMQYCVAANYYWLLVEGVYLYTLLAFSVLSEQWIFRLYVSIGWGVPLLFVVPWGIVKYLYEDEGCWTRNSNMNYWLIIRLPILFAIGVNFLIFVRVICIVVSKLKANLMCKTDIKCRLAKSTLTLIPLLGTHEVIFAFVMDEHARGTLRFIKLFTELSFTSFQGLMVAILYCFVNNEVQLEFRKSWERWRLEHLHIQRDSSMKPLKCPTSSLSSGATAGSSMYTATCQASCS

CC[C@H](C)[C@H](NC(=O)[C@H](CO)NC(=O)[C@H](Cc1ccc(O)cc1)NC(=O)[C@H](CC(=O)O)NC(=O)[C@H](CO)NC(=O)[C@@H](NC(=O)[C@H](Cc1ccccc1)NC(=O)[C@@H](NC(=O)CNC(=O)[C@H](CCC(=O)O)NC(=O)C(C)(C)NC(=O)[C@@H](N)Cc1ccc(O)cc1)[C@@H](C)O)[C@@H](C)CC)C(=O)N[C@@H](C)C(=O)N[C@@H](CC(C)C)C(=O)N[C@@H](CC(=O)O)C(=O)N[C@@H](CCCCN)C(=O)N[C@H](C(=O)N[C@@H](Cc1c[nH]cn1)C(=O)N[C@@H](CCC(N)=O)C(=O)NC(C)(C)C(=O)N[C@@H](CCC(=O)O)C(=O)N[C@@H](Cc1ccccc1)C(=O)N[C@H](C(=O)N[C@@H](CC(N)=O)C(=O)N[C@@H](Cc1ccc(O)cc1)C(=O)N[C@@H](CCCCNC(=O)COCCOCCNC(=O)COCCOCCNC(=O)CC[C@H](NC(=O)CCCCCCCCCCCCCCCCCCC(=O)O)C(=O)O)C(=O)N[C@@H](CC(C)C)C(=O)N[C@@H](C)C(=O)NCC(=O)NCC(=O)N1CCC[C@H]1C(=O)N[C@@H](CO)C(=O)N[C@@H](CO)C(=O)NCC(=O)N[C@@H](C)C(=O)N1CCC[C@H]1C(=O)N1CCC[C@H]1C(=O)N1CCC[C@H]1C(=O)N[C@@H](CO)C(N)=O)C(C)C)[C@@H](C)CC [Example 96] (H-Y[Aib]EGTFISDYSIALDKIHQ[Aib]EFVNYK([AEEA-AEEA-γGlu-C20 diacid])LAGGPSSGAPPPS-NH2)
Ki (human GcgR): > 960 nM
Ki (human GLP-1R): > 908 nM

CC[C@H](C)[C@H](NC(=O)[C@H](CO)NC(=O)[C@H](Cc1ccc(O)cc1)NC(=O)[C@H](CC(=O)O)NC(=O)[C@H](CO)NC(=O)[C@@H](NC(=O)[C@](C)(Cc1ccccc1)NC(=O)[C@@H](NC(=O)CNC(=O)[C@H](CCC(=O)O)NC(=O)C(C)(C)NC(=O)[C@@H](N)Cc1ccc(O)cc1)[C@@H](C)O)[C@@H](C)CC)C(=O)N[C@@H](C)C(=O)N[C@@H](CC(C)C)C(=O)N[C@@H](CC(=O)O)C(=O)N[C@@H](CCCCN)C(=O)N[C@H](C(=O)N[C@@H](Cc1c[nH]cn1)C(=O)N[C@@H](CCC(N)=O)C(=O)NC(C)(C)C(=O)N[C@@H](CCC(=O)O)C(=O)N[C@@H](Cc1ccccc1)C(=O)N[C@H](C(=O)N[C@@H](CC(N)=O)C(=O)N[C@@H](Cc1ccc(O)cc1)C(=O)N[C@@H](CCCCNC(=O)COCCOCCNC(=O)COCCOCCNC(=O)CC[C@H](NC(=O)CCCCCCCCCCCCCCCCCCC(=O)O)C(=O)O)C(=O)N[C@@H](CC(C)C)C(=O)N[C@@H](C)C(=O)NCC(=O)NCC(=O)N1CCC[C@H]1C(=O)N[C@@H](CO)C(=O)N[C@@H](CO)C(=O)NCC(=O)N[C@@H](C)C(=O)N1CCC[C@H]1C(=O)N1CCC[C@H]1C(=O)N1CCC[C@H]1C(=O)N[C@@H](CO)C(N)=O)C(C)C)[C@@H](C)CC [Example 97] (H-Y[Aib]EGT[αMeF]ISDYSIALDKIHQ[Aib]EFVNYK([AEEA-AEEA-γGlu-C20 diacid])LAGGPSSGAPPPS-NH2)
Ki (human GcgR): 77.5 nM
Ki (human GLP-1R): 570 nM

CC[C@H](C)[C@H](NC(=O)[C@H](CO)NC(=O)[C@H](Cc1ccc(O)cc1)NC(=O)[C@H](CC(=O)O)NC(=O)[C@H](CO)NC(=O)[C@@H](NC(=O)[C@](C)(Cc1ccccc1F)NC(=O)[C@@H](NC(=O)CNC(=O)[C@H](CCC(=O)O)NC(=O)C(C)(C)NC(=O)[C@@H](N)Cc1ccc(O)cc1)[C@@H](C)O)[C@@H](C)CC)C(=O)N[C@@H](C)C(=O)N[C@@H](CC(C)C)C(=O)N[C@@H](CC(=O)O)C(=O)N[C@@H](CCCCN)C(=O)N[C@H](C(=O)N[C@@H](Cc1c[nH]cn1)C(=O)N[C@@H](CCC(N)=O)C(=O)NC(C)(C)C(=O)N[C@@H](CCC(=O)O)C(=O)N[C@@H](Cc1ccccc1)C(=O)N[C@H](C(=O)N[C@@H](CC(N)=O)C(=O)N[C@@H](Cc1ccc(O)cc1)C(=O)N[C@@H](CCCCNC(=O)COCCOCCNC(=O)COCCOCCNC(=O)CC[C@H](NC(=O)CCCCCCCCCCCCCCCCCCC(=O)O)C(=O)O)C(=O)N[C@@H](CC(C)C)C(=O)N[C@@H](C)C(=O)NCC(=O)NCC(=O)N1CCC[C@H]1C(=O)N[C@@H](CO)C(=O)N[C@@H](CO)C(=O)NCC(=O)N[C@@H](C)C(=O)N1CCC[C@H]1C(=O)N1CCC[C@H]1C(=O)N1CCC[C@H]1C(=O)N[C@@H](CO)C(N)=O)C(C)C)[C@@H](C)CC [Example 98] (H-Y[Aib]EGT[αMePhe(2-F)]ISDYSIALDKIHQ[Aib]EFVNYK([AEEA-AEEA-γGlu-C20 diacid])LAGGPSSGAPPPS-NH2)
Ki (human GcgR): 38.4 nM
Ki (human GLP-1R): 311 nM

CC[C@H](C)[C@H](NC(=O)[C@H](CO)NC(=O)[C@H](Cc1ccc(O)cc1)NC(=O)[C@H](CC(=O)O)NC(=O)[C@H](CO)NC(=O)[C@@H](NC(=O)[C@](C)(Cc1ccccc1F)NC(=O)[C@@H](NC(=O)CNC(=O)[C@H](CCC(=O)O)NC(=O)C(C)(C)NC(=O)[C@@H](N)Cc1ccc(O)cc1)[C@@H](C)O)[C@@H](C)CC)C(=O)N[C@@H](C)C(=O)N[C@@H](CC(C)C)C(=O)N[C@@H](CC(=O)O)C(=O)N[C@@H](CCCCN)C(=O)N[C@H](C(=O)N[C@@H](Cc1c[nH]cn1)C(=O)N[C@@H](CCC(N)=O)C(=O)NC(C)(C)C(=O)N[C@@H](CC(=O)O)C(=O)N[C@@H](Cc1ccccc1)C(=O)N[C@H](C(=O)N[C@@H](CCC(=O)O)C(=O)N[C@@H](Cc1ccc(O)cc1)C(=O)N[C@@H](CCCCNC(=O)COCCOCCNC(=O)COCCOCCNC(=O)CC[C@H](NC(=O)CCCCCCCCCCCCCCCCCCC(=O)O)C(=O)O)C(=O)N[C@@H](CC(C)C)C(=O)N[C@@H](CCC(=O)O)C(=O)NCC(=O)NCC(=O)N1CCC[C@H]1C(=O)N[C@@H](CO)C(=O)N[C@@H](CO)C(=O)NCC(=O)N[C@@H](C)C(=O)N1CCC[C@H]1C(=O)N1CCC[C@H]1C(=O)N1CCC[C@H]1C(=O)N[C@@H](CO)C(N)=O)C(C)C)[C@@H](C)CC [Example 99] (H-Y[Aib]EGT[αMePhe(2-F)]ISDYSIALDKIHQ[Aib]DFVEYK([AEEA-AEEA-γGlu-C20 diacid])LEGGPSSGAPPPS-NH2)
Ki (human GcgR): 174 nM
Ki (human GLP-1R): > 901 nM

CC[C@H](C)[C@H](NC(=O)[C@H](CCCCN)NC(=O)[C@H](CC(=O)O)NC(=O)[C@H](CC(C)C)NC(=O)[C@](C)(CC(C)C)NC(=O)[C@@H](NC(=O)[C@H](CO)NC(=O)[C@H](Cc1ccc(O)cc1)NC(=O)[C@H](CC(=O)O)NC(=O)[C@H](CO)NC(=O)[C@@H](NC(=O)[C@H](Cc1ccccc1)NC(=O)[C@@H](NC(=O)CNC(=O)[C@H](CCC(=O)O)NC(=O)C(C)(C)NC(=O)[C@@H](N)Cc1ccc(O)cc1)[C@@H](C)O)[C@@H](C)CC)[C@@H](C)CC)C(=O)N[C@@H](Cc1c[nH]cn1)C(=O)N[C@@H](CCC(N)=O)C(=O)NC(C)(C)C(=O)N[C@@H](CCC(=O)O)C(=O)N[C@@H](Cc1ccccc1)C(=O)N[C@H](C(=O)N[C@@H](CCC(=O)O)C(=O)N[C@@H](Cc1ccncc1)C(=O)N[C@@H](CCCCNC(=O)COCCOCCNC(=O)COCCOCCNC(=O)CC[C@H](NC(=O)CCCCCCCCCCCCCCCCCCC(=O)O)C(=O)O)C(=O)N[C@@H](CC(C)C)C(=O)N[C@@H](CCC(=O)O)C(=O)NCC(=O)NCC(=O)N1CCC[C@H]1C(=O)N[C@@H](CO)C(=O)N[C@@H](CO)C(=O)NCC(=O)N[C@@H](C)C(=O)N1CCC[C@H]1C(=O)N1CCC[C@H]1C(=O)N1CCC[C@H]1C(=O)N[C@@H](CO)C(N)=O)C(C)C [Example 100] (H-Y[Aib]EGTFISDYSI[αMeL]LDKIHQ[Aib]EFVE[4Pal]K([AEEA-AEEA-γGlu-C20 diacid])LEGGPSSGAPPPS-NH2)
Ki (human GcgR): 572 nM
Ki (human GLP-1R): > 913 nM
